The source of these data is ChEMBL document CHEMBL3991601, “The target landscape of clinical kinase drugs” (Science, 2017).

Activity calls are given as the source filed them. Where only a bound is given, the exact number is not on record here.

Experiment [1] concerns the target Uncharacterized aarF domain-containing protein kinase 5 (Homo sapiens, UniProt Q3MIX3).
The target of experiment [2] is Dual specificity protein kinase CLK4 (Homo sapiens, UniProt Q9HAZ1).
Experiment [3] addresses G protein-coupled receptor kinase 6 (Homo sapiens, UniProt P43250).
Experiment [4] deals with Hepatocyte growth factor receptor (Homo sapiens, UniProt P08581).
Another experiment addresses Myosin-10 (Homo sapiens, UniProt P35580).
For experiment [5], the target named is Serine/threonine-protein kinase PAK 6 (Homo sapiens, UniProt Q9NQU5).
Experiment [6] deals with PAS domain-containing serine/threonine-protein kinase (Homo sapiens, UniProt Q96RG2).
Experiment [7] addresses Choline-phosphate cytidylyltransferase A (Homo sapiens, UniProt P49585).
Experiment [8] concerns the target Proto-oncogene tyrosine-protein kinase receptor Ret (Homo sapiens, UniProt P07949).
Experiment [9] has as its target Dual specificity testis-specific protein kinase 1 (Homo sapiens, UniProt Q15569).
Experiment [10] has as its target Dual specificity testis-specific protein kinase 2 (Homo sapiens, UniProt Q96S53).
The target of experiment [11] is T1, Dual specificity protein kinase TTK (Homo sapiens, UniProt P33981).
T1 sequence (P33981 whole entry): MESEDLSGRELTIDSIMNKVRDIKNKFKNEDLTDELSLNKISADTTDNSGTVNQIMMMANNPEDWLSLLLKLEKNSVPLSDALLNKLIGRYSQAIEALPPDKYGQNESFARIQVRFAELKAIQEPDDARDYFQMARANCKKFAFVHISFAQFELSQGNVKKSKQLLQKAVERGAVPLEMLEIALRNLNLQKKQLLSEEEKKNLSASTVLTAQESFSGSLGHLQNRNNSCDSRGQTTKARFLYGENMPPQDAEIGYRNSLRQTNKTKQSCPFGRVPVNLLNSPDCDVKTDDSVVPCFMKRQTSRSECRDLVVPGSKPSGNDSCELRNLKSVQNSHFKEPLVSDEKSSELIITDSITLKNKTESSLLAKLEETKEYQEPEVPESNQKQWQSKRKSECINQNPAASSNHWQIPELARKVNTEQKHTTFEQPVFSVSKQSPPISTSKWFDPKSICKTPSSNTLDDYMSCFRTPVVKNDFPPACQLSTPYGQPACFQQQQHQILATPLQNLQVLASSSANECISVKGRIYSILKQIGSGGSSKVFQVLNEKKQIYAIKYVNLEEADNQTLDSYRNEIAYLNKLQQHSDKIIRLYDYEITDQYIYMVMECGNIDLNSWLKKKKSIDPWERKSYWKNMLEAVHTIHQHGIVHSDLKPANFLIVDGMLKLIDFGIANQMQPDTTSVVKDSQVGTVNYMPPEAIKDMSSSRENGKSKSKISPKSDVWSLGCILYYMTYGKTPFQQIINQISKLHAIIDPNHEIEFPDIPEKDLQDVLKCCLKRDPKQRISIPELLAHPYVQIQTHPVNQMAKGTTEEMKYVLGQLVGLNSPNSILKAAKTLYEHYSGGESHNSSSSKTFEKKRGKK

The target in experiment [12] is T2, ATP-dependent RNA helicase DHX30 (Homo sapiens, UniProt Q7L2E3).
T2 sequence (Q7L2E3 whole entry): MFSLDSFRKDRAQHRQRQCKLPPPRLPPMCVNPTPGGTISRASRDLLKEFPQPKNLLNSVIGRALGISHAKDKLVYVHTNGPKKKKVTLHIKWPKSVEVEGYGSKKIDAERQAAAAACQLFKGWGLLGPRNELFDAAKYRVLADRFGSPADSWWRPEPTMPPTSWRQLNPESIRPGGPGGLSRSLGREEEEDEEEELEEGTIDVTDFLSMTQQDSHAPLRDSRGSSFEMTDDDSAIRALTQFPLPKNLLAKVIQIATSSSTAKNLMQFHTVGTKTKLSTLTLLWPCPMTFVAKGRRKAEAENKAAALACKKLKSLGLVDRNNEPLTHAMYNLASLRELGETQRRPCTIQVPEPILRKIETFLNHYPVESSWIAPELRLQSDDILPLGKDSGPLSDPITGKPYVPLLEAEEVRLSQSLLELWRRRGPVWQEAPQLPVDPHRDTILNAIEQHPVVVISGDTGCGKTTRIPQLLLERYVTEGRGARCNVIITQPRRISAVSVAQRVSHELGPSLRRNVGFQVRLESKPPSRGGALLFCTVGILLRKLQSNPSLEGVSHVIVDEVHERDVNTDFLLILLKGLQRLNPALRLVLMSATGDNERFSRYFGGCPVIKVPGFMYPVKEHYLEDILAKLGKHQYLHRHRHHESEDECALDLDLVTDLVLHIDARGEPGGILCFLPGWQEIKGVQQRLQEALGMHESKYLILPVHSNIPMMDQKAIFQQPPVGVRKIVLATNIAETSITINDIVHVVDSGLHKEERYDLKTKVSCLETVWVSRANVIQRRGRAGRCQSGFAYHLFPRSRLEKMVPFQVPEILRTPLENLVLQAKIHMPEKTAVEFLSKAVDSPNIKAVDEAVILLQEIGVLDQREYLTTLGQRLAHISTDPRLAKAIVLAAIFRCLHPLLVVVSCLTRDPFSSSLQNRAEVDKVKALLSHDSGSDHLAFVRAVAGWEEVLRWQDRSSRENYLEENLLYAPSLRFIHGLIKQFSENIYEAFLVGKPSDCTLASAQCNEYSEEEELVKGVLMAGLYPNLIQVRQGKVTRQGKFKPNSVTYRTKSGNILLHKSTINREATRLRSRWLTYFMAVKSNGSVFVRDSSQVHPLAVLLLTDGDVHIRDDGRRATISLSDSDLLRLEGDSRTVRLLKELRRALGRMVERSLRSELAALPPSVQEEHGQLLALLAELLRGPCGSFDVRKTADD

Experiment [13] has as its target Serine/threonine-protein kinase 24 (Homo sapiens, UniProt Q9Y6E0).
For experiment [14], the target named is DNA topoisomerase 2-alpha (Homo sapiens, UniProt P11388).
Note: in the data inactive means no Kd found up to 30 µM.

Chain of Serine/threonine-protein kinase 24 (Q9Y6E0 whole entry): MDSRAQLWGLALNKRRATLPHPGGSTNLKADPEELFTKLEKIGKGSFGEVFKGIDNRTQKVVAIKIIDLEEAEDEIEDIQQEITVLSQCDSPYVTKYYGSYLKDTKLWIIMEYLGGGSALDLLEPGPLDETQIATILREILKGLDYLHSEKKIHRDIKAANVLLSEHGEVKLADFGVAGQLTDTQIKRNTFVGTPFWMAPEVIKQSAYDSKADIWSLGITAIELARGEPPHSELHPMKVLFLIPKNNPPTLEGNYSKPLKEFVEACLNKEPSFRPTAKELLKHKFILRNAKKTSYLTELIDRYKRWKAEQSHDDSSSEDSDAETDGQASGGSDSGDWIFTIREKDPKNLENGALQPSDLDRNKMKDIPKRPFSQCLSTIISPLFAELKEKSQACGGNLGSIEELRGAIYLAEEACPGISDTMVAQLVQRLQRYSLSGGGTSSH
Chain of Myosin-10 (P35580 whole entry): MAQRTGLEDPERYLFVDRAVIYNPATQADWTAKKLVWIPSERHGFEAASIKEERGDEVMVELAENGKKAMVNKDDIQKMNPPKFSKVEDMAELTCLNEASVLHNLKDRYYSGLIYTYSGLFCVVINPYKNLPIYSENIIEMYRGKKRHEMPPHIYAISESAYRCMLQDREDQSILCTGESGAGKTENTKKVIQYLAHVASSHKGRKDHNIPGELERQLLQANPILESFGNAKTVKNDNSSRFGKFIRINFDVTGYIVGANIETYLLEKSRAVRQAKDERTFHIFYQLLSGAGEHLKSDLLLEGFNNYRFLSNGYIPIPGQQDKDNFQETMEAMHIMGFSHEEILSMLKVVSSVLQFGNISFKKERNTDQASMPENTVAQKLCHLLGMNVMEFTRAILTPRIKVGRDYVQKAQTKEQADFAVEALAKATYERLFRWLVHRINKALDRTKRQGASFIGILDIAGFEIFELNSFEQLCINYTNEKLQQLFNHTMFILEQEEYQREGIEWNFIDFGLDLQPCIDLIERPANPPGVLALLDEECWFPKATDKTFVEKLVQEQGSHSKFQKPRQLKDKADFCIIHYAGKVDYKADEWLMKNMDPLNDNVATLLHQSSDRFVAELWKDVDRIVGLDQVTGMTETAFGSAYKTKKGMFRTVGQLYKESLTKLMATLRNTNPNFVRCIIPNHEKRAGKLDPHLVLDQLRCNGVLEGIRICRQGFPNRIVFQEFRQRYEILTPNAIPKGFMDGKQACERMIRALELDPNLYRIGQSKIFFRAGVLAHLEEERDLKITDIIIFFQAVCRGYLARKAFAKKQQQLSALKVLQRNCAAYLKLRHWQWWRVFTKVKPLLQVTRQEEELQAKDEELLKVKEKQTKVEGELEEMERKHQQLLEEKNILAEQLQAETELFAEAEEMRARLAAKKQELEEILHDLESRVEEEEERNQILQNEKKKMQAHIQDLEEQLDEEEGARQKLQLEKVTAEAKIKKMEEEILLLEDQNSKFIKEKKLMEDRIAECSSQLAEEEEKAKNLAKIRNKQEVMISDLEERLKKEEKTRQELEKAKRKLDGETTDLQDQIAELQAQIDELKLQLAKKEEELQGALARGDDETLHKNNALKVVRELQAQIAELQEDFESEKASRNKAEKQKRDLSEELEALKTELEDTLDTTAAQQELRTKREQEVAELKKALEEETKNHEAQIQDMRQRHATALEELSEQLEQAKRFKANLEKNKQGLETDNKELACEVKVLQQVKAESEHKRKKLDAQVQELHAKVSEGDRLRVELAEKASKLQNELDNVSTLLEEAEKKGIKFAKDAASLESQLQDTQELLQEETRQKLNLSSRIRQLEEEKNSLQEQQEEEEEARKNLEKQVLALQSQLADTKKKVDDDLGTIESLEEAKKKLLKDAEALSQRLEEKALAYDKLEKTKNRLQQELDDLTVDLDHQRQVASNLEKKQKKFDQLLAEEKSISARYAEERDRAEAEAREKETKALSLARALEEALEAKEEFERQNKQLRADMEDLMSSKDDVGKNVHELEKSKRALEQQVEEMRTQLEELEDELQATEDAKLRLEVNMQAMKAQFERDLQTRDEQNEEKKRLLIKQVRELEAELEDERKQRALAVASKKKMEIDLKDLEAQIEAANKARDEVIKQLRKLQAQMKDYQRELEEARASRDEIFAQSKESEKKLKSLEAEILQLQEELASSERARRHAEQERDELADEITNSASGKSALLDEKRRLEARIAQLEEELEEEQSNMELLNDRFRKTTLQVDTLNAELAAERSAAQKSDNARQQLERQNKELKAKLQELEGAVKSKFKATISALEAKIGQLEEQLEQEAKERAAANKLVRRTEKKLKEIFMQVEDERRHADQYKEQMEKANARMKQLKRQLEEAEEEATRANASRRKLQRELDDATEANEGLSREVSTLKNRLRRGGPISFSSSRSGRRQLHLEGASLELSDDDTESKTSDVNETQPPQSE
Chain of Dual specificity testis-specific protein kinase 2 (Q96S53 whole entry): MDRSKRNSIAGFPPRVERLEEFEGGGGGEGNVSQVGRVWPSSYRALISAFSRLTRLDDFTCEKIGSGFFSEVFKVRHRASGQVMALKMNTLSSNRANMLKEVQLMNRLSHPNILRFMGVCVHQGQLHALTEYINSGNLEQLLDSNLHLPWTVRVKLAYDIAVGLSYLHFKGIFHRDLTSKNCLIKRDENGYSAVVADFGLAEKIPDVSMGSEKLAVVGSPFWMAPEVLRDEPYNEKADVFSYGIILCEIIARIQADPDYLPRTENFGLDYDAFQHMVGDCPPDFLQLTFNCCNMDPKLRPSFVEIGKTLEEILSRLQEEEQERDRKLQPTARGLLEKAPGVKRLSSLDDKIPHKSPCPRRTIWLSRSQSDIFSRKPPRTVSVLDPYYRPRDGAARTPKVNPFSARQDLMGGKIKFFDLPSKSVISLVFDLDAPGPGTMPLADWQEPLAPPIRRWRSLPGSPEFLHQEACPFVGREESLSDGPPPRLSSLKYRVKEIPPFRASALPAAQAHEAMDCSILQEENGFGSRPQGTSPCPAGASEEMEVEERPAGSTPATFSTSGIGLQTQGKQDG
Chain of Uncharacterized aarF domain-containing protein kinase 5 (Q3MIX3 whole entry, the tested form may be a part): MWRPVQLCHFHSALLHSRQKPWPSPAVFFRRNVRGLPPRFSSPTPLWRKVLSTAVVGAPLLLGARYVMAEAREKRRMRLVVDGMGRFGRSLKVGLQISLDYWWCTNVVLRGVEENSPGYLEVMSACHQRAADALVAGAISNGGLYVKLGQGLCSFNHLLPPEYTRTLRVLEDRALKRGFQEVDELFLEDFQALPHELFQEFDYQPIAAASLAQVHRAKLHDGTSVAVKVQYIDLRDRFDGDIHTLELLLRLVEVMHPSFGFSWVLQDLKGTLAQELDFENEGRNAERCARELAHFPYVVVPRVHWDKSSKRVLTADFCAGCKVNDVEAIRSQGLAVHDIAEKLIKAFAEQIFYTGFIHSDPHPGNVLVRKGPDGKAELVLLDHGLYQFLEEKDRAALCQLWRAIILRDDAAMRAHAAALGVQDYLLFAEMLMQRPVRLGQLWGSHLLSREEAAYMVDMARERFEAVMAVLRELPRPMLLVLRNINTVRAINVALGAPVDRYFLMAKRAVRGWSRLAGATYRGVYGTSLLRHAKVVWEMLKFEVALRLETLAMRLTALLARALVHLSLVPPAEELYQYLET
Chain of Dual specificity testis-specific protein kinase 1 (Q15569 whole entry): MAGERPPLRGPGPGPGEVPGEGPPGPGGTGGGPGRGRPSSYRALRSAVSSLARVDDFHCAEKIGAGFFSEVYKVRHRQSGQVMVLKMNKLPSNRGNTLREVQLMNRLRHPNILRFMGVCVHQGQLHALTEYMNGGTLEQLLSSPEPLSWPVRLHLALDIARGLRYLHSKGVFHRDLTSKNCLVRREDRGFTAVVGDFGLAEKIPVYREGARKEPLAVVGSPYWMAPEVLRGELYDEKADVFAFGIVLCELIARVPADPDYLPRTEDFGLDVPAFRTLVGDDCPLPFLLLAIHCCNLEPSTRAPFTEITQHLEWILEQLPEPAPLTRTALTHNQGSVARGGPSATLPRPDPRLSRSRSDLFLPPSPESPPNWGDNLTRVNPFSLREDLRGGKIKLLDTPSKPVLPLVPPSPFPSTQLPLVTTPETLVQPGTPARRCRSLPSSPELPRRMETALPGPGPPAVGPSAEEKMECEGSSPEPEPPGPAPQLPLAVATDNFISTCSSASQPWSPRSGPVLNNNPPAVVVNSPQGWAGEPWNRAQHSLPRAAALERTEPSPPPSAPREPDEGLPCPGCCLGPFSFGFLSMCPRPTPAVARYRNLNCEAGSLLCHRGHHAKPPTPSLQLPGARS
Chain of Dual specificity protein kinase CLK4 (Q9HAZ1 whole entry): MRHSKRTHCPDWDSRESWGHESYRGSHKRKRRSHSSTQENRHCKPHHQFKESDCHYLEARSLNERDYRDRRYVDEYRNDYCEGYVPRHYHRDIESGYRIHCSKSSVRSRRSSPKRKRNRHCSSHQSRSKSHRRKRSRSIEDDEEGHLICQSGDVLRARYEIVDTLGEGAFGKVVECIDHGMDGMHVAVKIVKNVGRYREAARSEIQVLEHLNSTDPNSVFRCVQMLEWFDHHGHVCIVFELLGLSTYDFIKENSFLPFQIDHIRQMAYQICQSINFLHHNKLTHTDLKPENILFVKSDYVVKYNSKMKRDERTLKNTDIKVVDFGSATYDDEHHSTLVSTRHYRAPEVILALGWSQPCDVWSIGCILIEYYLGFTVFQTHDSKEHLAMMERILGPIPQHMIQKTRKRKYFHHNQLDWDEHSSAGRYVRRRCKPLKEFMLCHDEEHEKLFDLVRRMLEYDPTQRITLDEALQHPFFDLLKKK
Chain of Choline-phosphate cytidylyltransferase A (P49585 whole entry): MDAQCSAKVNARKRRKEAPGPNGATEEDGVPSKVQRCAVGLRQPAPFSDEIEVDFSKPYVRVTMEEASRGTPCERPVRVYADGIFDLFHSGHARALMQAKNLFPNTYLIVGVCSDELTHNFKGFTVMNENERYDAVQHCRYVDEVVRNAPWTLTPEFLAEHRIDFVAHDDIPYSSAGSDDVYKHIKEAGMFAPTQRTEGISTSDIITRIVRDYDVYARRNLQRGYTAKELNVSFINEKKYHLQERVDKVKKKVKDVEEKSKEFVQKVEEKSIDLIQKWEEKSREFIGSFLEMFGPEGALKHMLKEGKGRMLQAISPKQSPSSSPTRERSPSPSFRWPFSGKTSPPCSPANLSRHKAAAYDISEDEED

The Kd is the constant that tells how readily two partners part at equilibrium. As for `CNC(=O)c1cccc(-c2ccc3c(N4CCOC[C@@H]4C)nc(N4CCOC[C@@H]4C)nc3n2)c1` [VISTUSERTIB], the Kd (in experiment [1]; in experiment [2]; in experiment [3]; in experiment [4]; at Myosin-10; in experiment [5]) was > 30 µM (inactive) throughout. For the same molecule, the Kd in experiment [6], in [7], in experiment [8], in [9], in [10] and in experiment [11] was > 30 µM (inactive) throughout.

Take `COc1cccc2cc(-c3nc([C@H]4CC[C@H](C(=O)O)CC4)n4ncnc(N)c34)[nH]c12` [OSI-027]: the Kd in experiment [2] is > 30 µM (inactive); in [12] it was > 30 µM (inactive); in experiment [3], > 30 µM (inactive); on Myosin-10, > 30 µM (inactive); in [7] it was > 30 µM (inactive); in experiment [8] it was 0.057 µM (active). For the same molecule, the Kd in experiment [13] and in experiment [14] was > 30 µM (inactive) in each case.

`COc1cc2c(Oc3ccc4[nH]c(C)cc4c3F)ncnc2cc1OCCCN1CCCC1` [CEDIRANIB]: the Kd (in experiment [1]; in experiment [12]; in experiment [3]; on Myosin-10; in [6]; in experiment [7]) was > 30 µM (inactive) throughout. In addition, the Kd in experiment [10] and in experiment [14] was > 30 µM (inactive) throughout.

For `CCN1CCN(Cc2ccc(Nc3ncc(F)c(-c4cc(F)c5nc(C)n(C(C)C)c5c4)n3)nc2)CC1` [ABEMACICLIB], the Kd in experiment [1] is > 30 µM (inactive); in experiment [2], 0.013 µM; in experiment [4], > 30 µM (inactive); in [7] it was > 30 µM (inactive); in experiment [8], > 30 µM (inactive); in experiment [13], > 30 µM (inactive). In addition, the Kd in [9], in experiment [14] and in [11] was > 30 µM (inactive) each time.

For the molecule `CCc1cc2c(cc1N1CCC(N3CCOCC3)CC1)C(C)(C)c1[nH]c3cc(C#N)ccc3c1C2=O` [ALECTINIB], the Kd (in experiment [1]; in experiment [2]; in experiment [12]; in experiment [3]; in experiment [4]; at Myosin-10) was > 30 µM (inactive) in each case. Moreover, the Kd in experiment [5], in [6], in experiment [7], in experiment [9], in experiment [10] and in [14] was > 30 µM (inactive) in each case. Besides, in experiment [11], the Kd was > 30 µM (inactive).

As to `COc1ccc2c(OCc3nnc4ccc(-c5ccccc5)nn34)ccnc2c1` [AMG-208], the Kd was > 30 µM (inactive) in [1]; > 30 µM (inactive) in experiment [2]; > 30 µM (inactive) in experiment [3]; 0.028 µM (active) in experiment [4]; > 30 µM (inactive) on Myosin-10; > 30 µM (inactive) in [7]. For the same molecule, the Kd in experiment [8], in experiment [13], in experiment [9], in experiment [10] and in [14] was > 30 µM (inactive) throughout.

As to `O=C(NC[C@H](O)CO)c1ccncc1Nc1ccc(I)cc1F` [PIMASERTIB], the Kd (in experiment [2]; in experiment [12]; in experiment [4]; on Myosin-10; in [5]; in experiment [6]) was > 30 µM (inactive) in each case. Besides, the Kd in experiment [7], in experiment [8], in experiment [13], in [9], in experiment [10] and in experiment [14] was > 30 µM (inactive) each time. Besides, the Kd in [11] was > 30 µM (inactive).

On to `CC1(C)CNc2cc(NC(=O)c3cccnc3NCc3ccncc3)ccc21` [MOTESANIB], for which the Kd (in [1]; in [12]; in experiment [3]; on Myosin-10; in [7]; in experiment [10]) was > 30 µM (inactive) throughout.

Regarding `Cc1ccc(C(=O)Nc2ccc(Oc3cc4cnn(C)c4cc3-c3cn[nH]c3)c(F)c2)c(=O)n1-c1ccc(F)cc1` [MERESTINIB], the Kd (in experiment [1]; in experiment [2]; in experiment [12]; in experiment [3]; at Myosin-10; in experiment [5]) was > 30 µM (inactive) each time. In addition, the Kd in experiment [6] was > 30 µM (inactive); in experiment [7], > 30 µM (inactive); in [8] it was 1.38 µM (active); in [13], > 30 µM (inactive); in experiment [9], > 30 µM (inactive); in [14], > 30 µM (inactive). Besides, the Kd in experiment [11] was > 30 µM (inactive).

Consider `C[C@]1(O)C[C@@H](c2nc(-c3ccc4ccc(-c5ccccc5)nc4c3)c3c(N)nccn32)C1` [LINSITINIB], for which the Kd (in experiment [12]; in [3]; at Myosin-10; in experiment [5]; in [6]; in [7]) was > 30 µM (inactive) each time. Moreover, the Kd in experiment [9], in experiment [10] and in experiment [11] was > 30 µM (inactive) throughout.

For the molecule `Cn1c(=O)n(-c2ccc(C(C)(C)C#N)cc2)c2c3cc(-c4cnc5ccccc5c4)ccc3ncc21` [DACTOLISIB], the Kd (in experiment [1]; on Myosin-10; in [5]; in [7]; in experiment [13]; in experiment [9]) was > 30 µM (inactive) in each case. For the same molecule, the Kd in [14] and in experiment [11] was > 30 µM (inactive) each time.
